This is an account of results in patent US8198299B2, “Cycloalkylidene and heterocycloalkylidene inhibitor compounds” (Gilead Sciences, Inc., priority 2008, dated 2012).

Each structure is given as a SMILES string.

Chain of HDAC 1 (Q13547 whole entry, species assumed): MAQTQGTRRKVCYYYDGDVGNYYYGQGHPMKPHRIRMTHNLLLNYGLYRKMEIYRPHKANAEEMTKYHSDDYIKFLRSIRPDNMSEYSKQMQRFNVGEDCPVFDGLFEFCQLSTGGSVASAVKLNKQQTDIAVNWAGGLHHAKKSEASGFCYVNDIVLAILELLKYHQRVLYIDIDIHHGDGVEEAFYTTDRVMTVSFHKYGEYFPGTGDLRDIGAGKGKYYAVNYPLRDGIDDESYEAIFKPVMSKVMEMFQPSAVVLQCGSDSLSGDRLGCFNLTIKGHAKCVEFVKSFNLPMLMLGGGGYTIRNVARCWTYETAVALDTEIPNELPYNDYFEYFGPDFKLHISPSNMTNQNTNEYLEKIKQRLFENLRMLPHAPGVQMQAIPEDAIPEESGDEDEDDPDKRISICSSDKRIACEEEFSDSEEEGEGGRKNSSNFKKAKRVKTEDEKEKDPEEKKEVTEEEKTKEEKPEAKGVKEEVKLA

The test has as its target HDAC 1 (Homo sapiens, UniProt Q13547). The test is described as follows: HDAC 1 inhibition assay with about 3-hour enzyme/compound preincubation (fluorophore/quencher peptide substrate). The note with it: 3-hour preincubation of enzyme and compound at room temperature; read-out: HDAC 1 inhibitory activity (IC50 [μM]) (3-hour preincubation). Format: biochemical. Here is the method: HDAC inhibitory activity of the compound of Example 1 was measured by two types of assays in which HDAC 1 and 6 were used as a target molecule. The first assay was carried out without preincubation after addition of the enzyme. The test compound was suspended in and titrated in DMSO. It was then spotted into a 384-well test plate. The enzyme, HDAC 1 or 6, was diluted in assay buffer containing 25 mM Tris-HCl (pH 8.0), 137 mM NaCl, 2.7 mM KCl, and 0.01% Tween-20 and added to the pre-spotted compound. The peptide substrate containing a fluorophore/quencher pair was diluted in the same assay buffer and added to the compound/enzyme mix initiating the reaction. The reaction incubated at room temperature for about 45 minutes. A concentrated developer solution was diluted in the assay buffer, and added to the reaction. The reaction was incubated at room temperature for about 15 minutes and relative fluorescence was read on an instrument reader.
The second assay is similar to the first assay described above, except that preincubation is carried out for about 3 hours after the enzyme is introduced. The test compound was suspended in, and titrated in DMSO. It was then spotted into a 384-well test plate. The enzyme, HDAC 1 or 6, was diluted in the same assay buffer as used in the previous assay and added to the pre-spotted compound. The enzyme/compound mix was incubated at room temperature for about 3 hours. The peptide substrate containing a fluorophore/quencher pair was diluted in the assay buffer and added to the compound/enzyme mix initiating the reaction. The reaction incubated at room temperature for 45 minutes. A concentrated developer solution was diluted in the assay buffer, and added to the reaction. The reaction was incubated at room temperature for about 15 minutes and relative fluorescence was read on an instrument reader.
For `Cc1nc2ccccn2c1-c1csc(C2(c3ccc(C(=O)Nc4ccccc4N)cc3)CC2)n1` [Example 1, N-(2-amino-phenyl)-4-{1-[4-(2-methyl-imidazo[1,2-a]pyridin-3-yl)-thiazol-2-yl]-cyclopropyl}-benzamide], the IC50 (usually the concentration at which inhibition is half-maximal) stood at 0.0239 µM.

Take `Cc1nc2ccccn2c1-c1csc(C2(c3ccc(C(=O)NO)cc3)CC2)n1` [Example 2, N-hydroxy-4-{1-[4-(2-methyl-imidazo[1,2-a]pyridin-3-yl)-thiazol-2-yl]-cyclopropyl}-benzamide]: the IC50 worked out at 0.024 µM.

As to `CC(=O)c1sc(C2(c3ccc(C(=O)Nc4ccccc4N)cc3)CC2)nc1C` [Example 3, 4-[1-(5-Acetyl-4-methyl-thiazol-2-yl)-cyclopropyl]-N-(2-amino-phenyl)-benzamide], the IC50 is 0.065 µM.

For the compound `Cc1nc(C2(c3ccc(C(=O)Nc4ccccc4N)cc3)CC2)sc1C(=O)N(C)C` [Example 4, 2-(1-(4-(2-aminophenylcarbamoyl)phenyl)cyclopropyl)-N,N-4-trimethylthiazole-5-carboxamide], the half-maximal inhibitory concentration (IC50) is 0.331 µM.

As for `Nc1ccccc1NC(=O)c1ccc(C2(c3nc(-c4cccnc4)cs3)CC2)cc1` [Example 5, N-(2-Amino-phenyl)-4-[1-(4-pyridin-3-yl-thiazol-2-yl)-cyclopropyl]-benzamide], the IC50 is 0.012 µM.

On to `Nc1ccccc1NC(=O)c1ccc(C2(c3nc(-c4cccnc4)cs3)CCCC2)cc1` [Example 6, N-(2-Amino-phenyl)-4-[1-(4-pyridin-3-yl-thiazol-2-yl)-cyclopentyl]-benzamide], for which the IC50 came to 0.012 µM.

As for `Cc1nc2ccccn2c1-c1csc(C2(c3ccc(C(=O)Nc4ccccc4N)cc3)CCCC2)n1` [Example 7], the half-inhibitory concentration (IC50) turned out to be 0.008 µM.

As to `Nc1ccccc1NC(=O)c1ccc(C2(c3nc(-c4cccnc4)cs3)CCOCC2)cc1` [Example 8, N-(2-Amino-phenyl)-4-[4-(4-pyridin-3-yl-thiazol-2-yl)-tetrahydro-pyran-4-yl]-benzamide], the IC50 is 0.037 µM.

Turning to `Cc1nc2ccccn2c1-c1csc(C2(c3ccc(C(=O)Nc4ccccc4N)cc3)CCOCC2)n1` [Example 9, N-(2-Amino-phenyl)-4-{4-[4-(2-methyl-imidazo[1,2-a]pyridin-3-yl)-thiazol-2-yl]-tetrahydro-pyran-4-yl}-benzamide], the half-maximal inhibitory concentration (IC50) is 0.003 µM.

In the case of `CC(C)NC(=O)c1csc(C2(c3ccc(C(=O)Nc4ccccc4N)cc3)CC2)n1` [Example 10, 2-(1-(4-(2-aminophenylcarbamoyl)phenyl)cyclopropyl)-N-isopropylthiazole-4-carboxamide], the IC50 came to 0.279 µM.

With `Nc1ccccc1NC(=O)c1ccc(C2(c3nc4c(s3)CCCC4)CC2)cc1` [Example 11, N-(2-amino-phenyl)-4-[1-(4,5,6,7-tetrahydro-benzothiazol-2-yl)-cyclopropyl]-benzamide], the IC50 turned out to be 0.069 µM.

For `CCOC(=O)N1CCc2nc(C3(c4ccc(C(=O)Nc5ccccc5N)cc4)CC3)sc2C1` [Example 12], the IC50 came out at 0.016 µM.

For `Nc1ccccc1NC(=O)c1ccc(C2(c3nccs3)CCOCC2)cc1` [Example 15], the IC50 was 0.119 µM.

With `Cc1csc(C2(c3ccc(C(=O)Nc4ccccc4N)cc3)CC2)n1` [Example 16, N-(2-aminophenyl)-4-(1-(4-methylthiazol-2-yl)cyclopropyl)benzamide], the IC50 was determined as 0.0988 µM.

`CC(C)[C@H](N)C(=O)N1CCc2nc(C3(c4ccc(C(=O)Nc5ccccc5N)cc4)CC3)sc2C1` [Example 17, (S)-4-(1-(5-(2-amino-3-methylbutanoyl)-4,5,6,7-tetrahydrothiazolo[5,4-c]pyridin-2-yl)cyclopropyl)-N-(2-aminophenyl)benzamide]: the IC50 came out at 0.0982 µM.

As for `Nc1ccccc1NC(=O)c1ccc(C2(c3nc(-c4ccc(Cl)nc4)cs3)CCOCC2)cc1` [Example 18, N-(2-aminophenyl)-4-(4-(4-(6-chloropyridin-3-yl)thiazol-2-yl)tetrahydropyran-4-yl)benzamide], the IC50 was 0.0139 µM.

Take `Nc1ccc(F)cc1NC(=O)c1ccc(C2(c3nc(-c4cccnc4)cs3)CC2)cc1` [Example 19, N-(2-Amino-5-fluoro-phenyl)-4-[1-(4-pyridin-3-yl-thiazol-2-yl)-cyclopropyl]-benzamide]: the IC50 was 0.0518 µM.

In the case of `Nc1ccccc1NC(=O)c1ccc(C2(c3nc(-c4ccc(N5CCCC5)nc4)cs3)CCOCC2)cc1` [Example 20, N-(2-aminophenyl)-4-(4-(4-(6-(pyrrolidin-1-yl)pyridin-3-yl)thiazol-2-yl)tetrahydropyran-4-yl)benzamide], the IC50 is 0.019 µM.

On to `CN1CCc2nc(C3(c4ccc(C(=O)Nc5cc(-c6cccs6)ccc5N)cc4)CCOCC3)sc2C1` [Example 21, N-(2-amino-5-(thiophen-2-yl)phenyl)-4-(4-(5-methyl-4,5,6,7-tetrahydrothiazolo[5,4-c]pyridin-2-yl)tetrahydropyran-4-yl)benzamide], for which the IC50 came out at 0.006 µM.

For the compound `Nc1ccc(-c2cccs2)cc1NC(=O)c1ccc(C2(c3nc(-c4cccnc4)cs3)CCOCC2)cc1` [Example 22, N-(2-amino-5-(thiophen-2-yl)phenyl)-4-(4-(4-(pyridin-3-yl)thiazol-2-yl)tetrahydropyran-4-yl)benzamide], the IC50 was determined as 0.014 µM.

For `Nc1ccc(F)cc1NC(=O)c1ccc(C2(c3nc(-c4cccnc4)cs3)CCOCC2)cc1` [Example 23, N-(2-amino-5-fluorophenyl)-4-(4-(4-(pyridin-3-yl)thiazol-2-yl)tetrahydropyran-4-yl)benzamide], the IC50 was 0.032 µM.

As to `COCCOc1ccc(-c2csc(C3(c4ccc(C(=O)Nc5ccccc5N)cc4)CCOCC3)n2)cn1` [Example 24, N-(2-aminophenyl)-4-(4-(4-(6-(2-methoxyethoxy)pyridin-3-yl)thiazol-2-yl)tetrahydropyran-4-yl)benzamide], the IC50 was 0.013 µM.

Take `CN1CCN(c2ccc(-c3csc(C4(c5ccc(C(=O)Nc6ccccc6N)cc5)CCOCC4)n3)cn2)CC1` [Example 25, N-(2-aminophenyl)-4-(4-(4-(6-(4-methylpiperazin-1-yl)pyridin-3-yl)thiazol-2-yl)tetrahydropyran-4-yl)benzamide]: the IC50 was found to be 0.006 µM.

Take `Nc1ccccc1NC(=O)c1ccc(C2(c3nc4c(s3)COCC4)CCOCC2)cc1` [Example 26, N-(2-aminophenyl)-4-(4-(6,7-dihydropyrano[4,3-d]thiazol-2-yl)tetrahydropyran-4-yl)benzamide]: the IC50 stood at 0.017 µM.

As to `CC(=O)N1CCc2nc(C3(c4ccc(C(=O)Nc5ccccc5N)cc4)CCOCC3)sc2C1` [Example 27, 4-(4-(5-acetyl-4,5,6,7-tetrahydrothiazolo[5,4-c]pyridin-2-yl)tetrahydropyran-4-yl)-N-(2-aminophenyl)benzamide], the IC50 was found to be 0.019 µM.

`CC(=O)N1CCc2nc(C3(c4ccc(C(=O)Nc5cc(-c6cccs6)ccc5N)cc4)CCOCC3)sc2C1` [Example 28, 4-(4-(5-acetyl-4,5,6,7-tetrahydrothiazolo[5,4-c]pyridin-2-yl)tetrahydropyran-4-yl)-N-(2-amino-5-(thiophen-2-yl)phenyl)benzamide]: the IC50 came out at 0.0026 µM.

For the compound `CN1CCc2nc(C3(c4ccc(C(=O)Nc5ccccc5N)cc4)CCOCC3)sc2C1` [Example 29, N-(2-aminophenyl)-4-(4-(5-methyl-4,5,6,7-tetrahydrothiazolo[5,4-c]pyridin-2-yl)tetrahydropyran-4-yl)benzamide], the IC50 is 0.032 µM.

In the case of `CN1CCc2nc(C3(c4ccc(C(=O)Nc5cc(F)ccc5N)cc4)CCOCC3)sc2C1` [Example 30, N-(2-amino-5-fluorophenyl)-4-(4-(5-methyl-4,5,6,7-tetrahydrothiazolo[5,4-c]pyridin-2-yl)tetrahydropyran-4-yl)benzamide], the IC50 was determined as 0.067 µM.

For `Nc1ccc(-c2cccs2)cc1NC(=O)c1ccc(C2(c3nc(CN4CCCC4)cs3)CCOCC2)cc1` [Example 31, N-(2-amino-5-(thiophen-2-yl)phenyl)-4-(4-(4-(pyrrolidin-1-ylmethyl)thiazol-2-yl)tetrahydropyran-4-yl)benzamide], the half-inhibitory concentration (IC50) turned out to be 0.001 µM.

As to `COCCOCc1csc(C2(c3ccc(C(=O)Nc4cc(-c5cccs5)ccc4N)cc3)CCOCC2)n1` [Example 32, N-(2-amino-5-(thiophen-2-yl)phenyl)-4-(4-(4-((2-methoxyethoxy)methyl)thiazol-2-yl)tetrahydropyran-4-yl)benzamide], the IC50 amounted to 0.0025 µM.

For the compound `Nc1ccc(-c2cccs2)cc1NC(=O)c1ccc(C2(c3nc(CN4CCOCC4)cs3)CCOCC2)cc1` [Example 33, N-(2-amino-5-(thiophen-2-yl)phenyl)-4-(4-(4-(morpholinomethyl)thiazol-2-yl)tetrahydropyran-4-yl)benzamide], the IC50 came to 0.0029 µM.

With `Nc1ccccc1NC(=O)c1ccc(C2(c3nc(-c4ccc(N5CCN(C6CC6)CC5)nc4)cs3)CCOCC2)cc1` [Example 34, N-(2-aminophenyl)-4-(4-(4-(6-(4-cyclopropylpiperazin-1-yl)pyridin-3-yl)thiazol-2-yl)tetrahydropyran-4-yl)benzamide], the IC50 was 0.0066 µM.
